Reference: US5262426A, “N,N'-cycloalkyl/alkyl carboxamide 4H-imidazo-[4,5-b]pyridine compounds as PAF antagonists” (G. D. Searle & Co., priority 1993, dated 1993)
pIC50: −log10 of the molar value.

How the values were obtained:
[1] = system: arachidonic acid-induced platelet aggregation; conditions: cited from earlier work
[2] = system: thromboxane synthetase; conditions: cited from earlier work
[3] = system: bronchoconstriction; conditions: cited from earlier work
[4] = target: T1, PAF receptor (human platelet membrane preparation) (Homo sapiens, UniProt P25105); experiment: Assay A: Human Platelet Receptor Binding ([3H]PAF); conditions: for pIC50: 0.75 nM [3H]PAF, 30 minutes at 24° C
T1 construct: human platelet membrane preparation; tissue Lifesource, Inc. (Glenview, Ill.); host or cells: human packed platelets (washed, freeze-thaw broken, membrane pellet)
T1 sequence (P25105 whole entry): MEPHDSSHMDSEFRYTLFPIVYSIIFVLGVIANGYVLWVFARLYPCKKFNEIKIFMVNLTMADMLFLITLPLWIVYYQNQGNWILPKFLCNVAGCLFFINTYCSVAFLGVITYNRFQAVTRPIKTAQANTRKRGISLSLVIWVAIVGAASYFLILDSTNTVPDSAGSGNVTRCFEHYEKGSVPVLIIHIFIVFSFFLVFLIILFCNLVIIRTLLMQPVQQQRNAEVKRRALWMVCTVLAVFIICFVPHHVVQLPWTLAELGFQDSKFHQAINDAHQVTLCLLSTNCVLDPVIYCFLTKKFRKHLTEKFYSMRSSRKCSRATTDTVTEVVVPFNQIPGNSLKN
Description: Assay A: Human Platelet Receptor Binding
Compounds of the invention were evaluated for their ability to inhibit specific binding of [^3 H]PAF to human platelet membrane preparation. Human packed platelets were obtained from Lifesource, Inc. (Glenview, Ill.) and washed 3 times with 10 mM Trizma pH 7.0, 2 mM EDTA (dipotassium salt), 150 mM KCl and then once with 10 mM Trizma 7.4, 20 mM CaCl2. The platelets were broken by freezing in a dry ice-ethanol bath, followed by thawing in 24° C. water baths. The preparation was centrifuged (40,000 x g, 20 minutes, 4'C) and the pellet resuspended in 10 mM Trizma 7.4, 20 mM CaCl2, 5 mg/ml human albumin. Protein concentration in the platelet membrane preparation was determined by the Lowry method [0. H. Lowry et al, J. Biol. Chem., 193 265-275 (1951)]. Aliquots of the membrane preparation were stored at -70° C. Each preparation was characterized for PAF receptor number and dissociation constant (Kd). In binding assays 5 μl of test compound, solubilzed in DMSO, was added to polypropylene tubes along with 0.75 nM [^3 H]PAF and 200 mcl [0.075 nM] of membranes and 95 μl 10 mM Trizma 7.4, 20 mM CaCL2, 5 mg/ml human albumin. Tubes were incubated for 30 minutes at 24° C. The incubation was terminated by adding 4 ml of ice-cold 10 mM Trizma pH 7.4, 20 mM CaCl2 and 20 mg/ml BSA prior to vacuum filtration using Whatman GF/C filters. Filters were prepared and counted for a scintillation counter. All DPM values were corrected for background and isotope decay. Triplicate determinations for single doses were averaged. The amount of non-specific binding was subtracted from all dose averages, giving an amount of specific binding in all cases. The IC50 values for compounds of the invention determined by the Allfit program using percent displacement data. Allfit is a "basic" computer program for simultaneous curve fitting of a family of sigmoidal dose-response curves using the four parameter logistic equation.

[5] = system: human platelets; experiment: Assay B: Human Platelet Aggregation Inhibition (PAF-induced, platelet-rich plasma); type: cell-based; conditions: 37°
Description: Assay B: Human Platelet Aggregation Inhibition
A compound of the invention was evaluated for ability to inhibit PAF-induced aggregation of human platelets in a human-platelet-rich plasma. Venous blood was collected from donors who fasted for 8 hours and were instructed not to use antiinflammatory drugs for 2 weeks prior to blood draw. Blood was collected into syringes containing 0.1 ml of 3.8% [w/v] citrate and centrifuged in polypropylene tubes at 150xg for 20 minutes at room temperature. The platelet rich plasma [PRP] was collected and let sit for 20 minutes at room temperature. Platelet activating factor [PAF] was diluted in 0.9% NaCl with 0.25% bovine serum albumin. Silicon treated cuvettes with stir bars were placed in the 37° heating block of the platelet aggregometer [Bio/Data Corporation, Platelet Aggregation Profiler, Model PAP-4]. PRP and test compound were added to cuvettes and aggregation monitored for 10-15 seconds at 37° with stirring. PAF was added and aggregation monitored for an additional 3 minutes. Peak aggregation was considered the peak of the first aggregation wave usually 45-60 seconds after PAF addition. Inhibition of aggregation was determined by the following: 1- [(% aggregation in the presence of compound).div.(% maximal aggregation)]. A log/logit transformation was used to determine half maximal inhibitory concentration of a test compound [IC50 ].

[6] = system: PAF-induced aggregation; conditions: human platelet-rich plasma; cited from earlier work

SMILES | pIC50 [4] | further results
C(=Cc1ccccc1)Cn1ccnc1 [1-(3-phenyl-2-propenyl)1H-imidazole] | – | inhibiting arachidonic acid-induced platelet aggregation [1]: effective in inhibiting; inhibiting thromboxane synthetase [2]: effective in inhibiting; inhibiting bronchoconstriction [3]: effective in inhibiting
COc1cc(C(=O)N(C(C)C)C2CCCCC2)ccc1Cn1cccc2nc(CO)nc1-2 [Example 6, N-cyclohexyl-4-[[2-(hydroxymethyl)-4H-imidazo[4,5-b]pyridin-4-yl]methyl]-3 methoxy-N-(1-methylethyl)benzamide] | 6.34 | –
COc1cc(Cn2cccc3ncnc2-3)ccc1C(=O)N(C1CCCC1)C1CC(C)CC(C)C1 (stereo not shown) [Example 4, N-cyclopentyl-N-(3,5-dimethylcyclohexyl)-4-[(4H-imidazo[4,5-b]pyridin-4-yl)methyl]-2-methoxybenzamide] | 6.86 | pIC50 [5]: 7.24
COc1cc(Cn2cccc3ncnc2-3)ccc1C(=O)N(C(C)C)C1CCCCC1 [Example 2, N-cyclohexyl-4-[(4H-imidazo[4,5-b]pyridin-4-yl)methyl]-2-methoxy-N-(1-methylethyl)benzamide] | – | inhibition at 10 µM ([4]; at 10 μM): 40%
COc1cc(C(=O)N(C2CCCC2)C2CCCC2)ccc1Cn1cccc2ncnc1-2 [Example 1, N,N-dicyclopentyl-4-[(4H-imidazo[4,5-b]pyridin-4-yl)methyl]-3-methoxybenzamide] | 5.98 | –
CC(C)N(C(=O)c1ccc(Cn2cccc3ncnc2-3)cc1)C1CCCCC1 [Example 9, N-cyclohexyl-4-[(4H-imidazo[4,5-b]pyridin-4 yl)methyl]-N-(1-methylethyl)benzamide] | 6.07 | –
COc1cc(C(=O)N(C(C)C)C2CCCCC2)ccc1Cn1cccc2ncnc1-2 [Example 3, N-cyclohexyl-4-[(4H-imidazo[4,5-b]pyridin-4-yl)methyl]-3-methoxy-N-(1-methylethyl)benzamide] | 6.19 | –
COc1cc(C(=O)N(C(C)C)C2CCCCC2)ccc1Cn1cccc2nc(C)nc1-2 [Example 5, N-cyclohexyl-3-methoxy-N-(1-methylethyl)-4-[(2-methyl-4H-imidazo[4,5-b]pyridin-4 yl]methyl]benzamide] | 6.49 | –
COc1cc(C(=O)N(C(C)C)C2CCCCC2)ccc1Cn1cccc2nc(-c3ccccn3)nc1-2 [Example 7, N-cyclohexyl-3-methoxy-N-(1-methylethyl)-4-[[2-(2-pyridinyl)-4H-imidazo[4,5-b]pyridin-4-yl]methyl]benzamide] | 6.14 | –
CN(C(=O)c1ccc(Cn2cnc3cnccc32)cc1)C1CCCCC1 [N-cyclohexyl-N-methyl-4-(1H-imidazo[4,5-c]pyridin-1-yl-methyl)benzamide] | – | inhibition of PAF-induced aggregation [6]: inhibitor of PAF-induced aggregation
